# How the values were obtained:
# HSTS26T tumors [1] = test: IgG diffusion by fluorescence recovery after photobleaching (FRAP); format: in vivo, SCID mice
# Description: FIG. 9 is a bar graph showing the changes in diffusion coefficient in HSTS26T tumors after losartan treatment. The diffusion coefficient of IgG was measured in HSTS26T tumors implanted in the dorsal window chamber of SCID mice. Treated animals received (40 mg/kg/day) losartan by i.p. injection while control animals received saline.
# Based on the previous studies on the tumor interstitial matrix (Pluen A, et al. (2001) Proc Natl Acad Sci USA 98:4628-4633 and Brown E, et al. (2003) Nat Med 9:796-800), the inventors then sought to determine if a decrease in collagen content by Losartan can improve the intratumoral distribution of nanoparticles. The inventors therefore measured the intratumoral distribution of fluorescent polystyrene nanoparticles (100 nm diameter) in three different tumor types—HSTS26T, Mu89, and L3.6 pl—after an i.t. or i.v. injection. […] The inventors also determined the effects of losartan on the intratumoral distribution of oncolytic HSV.
# Mice with HSTS26T tumors implanted in a dorsal skin fold chamber were treated with i.p. injections of losartan (40 mg/kg/day) for 1 week. Fluorescence recovery after photobleaching (FRAP) measurements were done with a custom built multiphoton microscope based on a previously described protocol (Chauhan V P, et al. (2009) Biophys J 97:330-336). […] Matrix pore sizes were calculated using the SFA-FRAP data, using the equation […]
# HSTS26T tumors [2] = test: Vascular density in tumors; conditions: in vivo
# 4T1 breast tumors = test: Solid stress (tumor opening technique); set-up: species or system mice; conditions: mouse, in vivo
# Source text: FIG. 25 is a bar graph showing that angiotensin inhibitors decrease stress in multiple tumor models. Solid stress levels in tumors after angiotensin inhibition using losartan are shown. […] Animal numbers n=10-11 (4T1 stress), n=4-8 (Pan-02 stress).
# The mechanism responsible for the increase in tumor vessel perfusion by losartan was investigated. Desmoplasia, high stromal cell and matrix density, is a major contributor to the solid stress accumulation that compresses vessels (Stylianopoulos T, et al., Growth-induced mechanical stress in murine and human tumors: causes, consequences and remedies. under review. 2012). […] Moreover, losartan decreased collagen I concentration, measured based on staining intensity, in E0771 and AK4.4 tumors (FIGS. 24B-24C). […] Next, solid stress in these tumors was measured using recently established technique described in Stylianopoulos T, et al., Growth-induced mechanical stress in murine and human tumors: causes, consequences and remedies. under review. […]
# Solid stress: Solid stress was measured using the tumor opening technique as described previously (Stylianopoulos T, et al., Growth-induced mechanical stress in murine and human tumors: causes, consequences and remedies. under review. 2012). […] Subsequently, each tumor was excised, washed with Hanks' Balanced Salt Solution (HBSS) and its three dimensions were measured. […]
# E0771 tumors = test: Nanoparticle penetration (effective permeability) by intravital multiphoton microscopy; format: in vivo, mice
# Source text: Penetration rates are quantified as effective permeability, which is the transvascular mass flux per unit vascular surface area and transvascular concentration difference.
# Nanoparticle penetration rates were quantified as transvascular mass flux per unit vascular surface area and transvascular concentration difference, termed as the effective permeability.
# Images were taken at ˜60 mW at sample surface. Mosaic images were taken in raster pattern using a motorized stage (H101, Prior Scientific) and customized automation software (LabView, National Instruments). Imaging studies were performed with a 20× magnification, 0.95NA water immersion objective (Olympus XLUMPlanFl, 1-UB965, Optical Analysis).
# Concentrations were adjusted with in vitro calibration to result in roughly equal photoluminescence intensity for all three nanoparticle samples under 800 nm multiphoton excitation. […] Images were taken every 3 min at each region of interest for a duration of 1 hr. […] The analysis approach involved 3D vessel tracing to create vessel metrics and a 3D map of voxel intensity versus distance to the nearest vessel over time. Images were also corrected for sample movement over time with 3D image registration. The effective permeability was calculated with
# Fluorescence intensities were used as these concentrations. The calculation was made as an average over the entire imaged volume for each tumor.
# [3] = Mean arterial blood pressure (MABP) in mice
# Description: In the following Examples, 20 mg/kg/day dose was used (but it by no means limits the use of other doses in the methods described herein).
# [4] = Losartan bioanalysis: plasma and tumor levels (HPLC/FLU); conditions: male, FVB, mouse, subcutaneous
structure (smiles),measurement,setting,value
CCCCc1nc(Cl)c(CO)n1Cc1ccc(-c2ccccc2-c2nn[nH]n2)cc1 [losartan],diffusion coefficient of IgG,"HSTS26T tumors [1]; 40 mg/kg/day i.p., multiphoton FRAP",significant increase
same,mean interstitial matrix pore radius,"HSTS26T tumors [1]; calculated from IgG diffusion data, control 9.91±0.43 nm",11.78±0.41 nm
same,tumor growth or vascular density,HSTS26T tumors [2],did not affect
same,solid stress,4T1 breast tumors,reduces solid stress
same,effective permeability,E0771 tumors; 12 nm nanoparticles,improved
same,effective permeability,E0771 tumors; 60 nm nanoparticles,improved
same,effective permeability,E0771 tumors; 125 nm nanoparticles,improved
same,reduction in mean arterial blood pressure (MABP),"[3]; 20 mg/kg/day, after 2 weeks",10 mm Hg
same,reduction in mean arterial blood pressure (MABP),[3]; 60 mg/kg/day,35 mm Hg
same,concentration at 2 h,"[4]; plasma, 40 mg/kg, Plasma 2 hr level, Day 14, Group 3: losartan subcutaneous injection without pump 40 mg/kg daily",423 ng/mL
same,concentration at 2 h,"[4]; plasma, 40 mg/kg, Plasma 2 hr level, Day 19, Group 3: losartan subcutaneous injection without pump 40 mg/kg daily",152 ng/mL
same,concentration at 6 h,"[4]; plasma, 40 mg/kg, Plasma 6 hr level, Day 14, Group 3: losartan subcutaneous injection without pump 40 mg/kg daily",11 ng/mL
same,concentration at 6 h,"[4]; plasma, 40 mg/kg, Plasma 6 hr level, Day 19, Group 3: losartan subcutaneous injection without pump 40 mg/kg daily",28 ng/mL
same,concentration at 2 h,"[4]; plasma, 40 mg/kg/day, Plasma 2 hr level, Day 14, Group 2: losartan via subcutaneous pump 40 mg/kg/day",227 ng/mL
same,concentration at 2 h,"[4]; plasma, 40 mg/kg/day, Plasma 2 hr level, Day 19, Group 2: losartan via subcutaneous pump 40 mg/kg/day",370 ng/mL
same,concentration at 6 h,"[4]; plasma, 40 mg/kg/day, Plasma 6 hr level, Day 14, Group 2: losartan via subcutaneous pump 40 mg/kg/day",304 ng/mL
same,concentration at 6 h,"[4]; plasma, 40 mg/kg/day, Plasma 6 hr level, Day 19, Group 2: losartan via subcutaneous pump 40 mg/kg/day",376 ng/mL
same,concentration at 2 h,"[4]; tumor, 40 mg/kg, Tumor 2 hr level, Day 14, Group 3: losartan subcutaneous injection without pump 40 mg/kg daily",163 ng/mL
same,concentration at 2 h,"[4]; tumor, 40 mg/kg, Tumor 2 hr level, Day 19, Group 3: losartan subcutaneous injection without pump 40 mg/kg daily",41 ng/mL
same,concentration at 6 h,"[4]; tumor, 40 mg/kg, Tumor 6 hr level, Day 14, Group 3: losartan subcutaneous injection without pump 40 mg/kg daily",21 ng/mL
same,concentration at 6 h,"[4]; tumor, 40 mg/kg, Tumor 6 hr level, Day 19, Group 3: losartan subcutaneous injection without pump 40 mg/kg daily",54 ng/mL
same,concentration at 2 h,"[4]; tumor, 40 mg/kg/day, Tumor 2 hr level, Day 14, Group 2: losartan via subcutaneous pump 40 mg/kg/day",50 ng/mL
same,concentration at 2 h,"[4]; tumor, 40 mg/kg/day, Tumor 2 hr level, Day 19, Group 2: losartan via subcutaneous pump 40 mg/kg/day",56.1 ng/mL
same,concentration at 6 h,"[4]; tumor, 40 mg/kg/day, Tumor 6 hr level, Day 14, Group 2: losartan via subcutaneous pump 40 mg/kg/day",57 ng/mL
same,concentration at 6 h,"[4]; tumor, 40 mg/kg/day, Tumor 6 hr level, Day 19, Group 2: losartan via subcutaneous pump 40 mg/kg/day",66 ng/mL
